{
  "source": "patent US20090291929A1",
  "about": "“STEROIDS HAVING A MIXED […] PRO[…]” (N.V. ORGANON, priority 2005, published 2009)",
  "key": {"[1]": {"target": "T1, human androgen receptor (hAR) (Homo sapiens, UniProt P10275)", "T1 construct": "expressed in transfected cells; host or cells: Chinese hamster ovary cells (CHO)", "T1 sequence (P10275 1-920)": "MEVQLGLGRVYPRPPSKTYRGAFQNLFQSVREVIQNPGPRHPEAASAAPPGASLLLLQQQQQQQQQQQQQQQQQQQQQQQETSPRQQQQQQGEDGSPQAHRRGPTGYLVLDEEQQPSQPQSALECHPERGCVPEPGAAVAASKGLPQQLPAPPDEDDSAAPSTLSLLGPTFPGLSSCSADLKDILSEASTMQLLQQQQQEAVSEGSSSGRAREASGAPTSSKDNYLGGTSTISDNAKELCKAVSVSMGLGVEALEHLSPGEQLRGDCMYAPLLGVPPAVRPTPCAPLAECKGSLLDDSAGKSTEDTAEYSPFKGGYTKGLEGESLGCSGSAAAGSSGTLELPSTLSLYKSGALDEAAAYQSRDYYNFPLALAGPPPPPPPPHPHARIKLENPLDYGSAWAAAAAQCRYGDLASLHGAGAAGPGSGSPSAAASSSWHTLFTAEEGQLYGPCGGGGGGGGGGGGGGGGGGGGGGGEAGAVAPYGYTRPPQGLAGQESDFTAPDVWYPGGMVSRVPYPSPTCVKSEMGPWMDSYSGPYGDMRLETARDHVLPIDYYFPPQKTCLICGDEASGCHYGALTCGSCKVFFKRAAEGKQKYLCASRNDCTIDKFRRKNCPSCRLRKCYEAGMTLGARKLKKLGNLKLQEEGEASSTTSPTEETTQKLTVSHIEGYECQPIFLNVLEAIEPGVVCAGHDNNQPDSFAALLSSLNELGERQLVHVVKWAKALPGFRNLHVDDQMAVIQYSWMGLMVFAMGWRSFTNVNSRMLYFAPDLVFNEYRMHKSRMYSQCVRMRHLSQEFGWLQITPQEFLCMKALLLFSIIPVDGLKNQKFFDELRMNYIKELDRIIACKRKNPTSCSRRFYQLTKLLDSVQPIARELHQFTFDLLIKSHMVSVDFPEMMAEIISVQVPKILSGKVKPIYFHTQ", "experiment": "Transactivative androgen agonistic activity in CHO cells transfected with hAR, MMTV and luciferase", "type": "cell-based", "conditions": "MMTV-luciferase, incubation 16 h, 37° C.", "protocol": "(§1) The transactivative androgen agonistic activity of the compounds of the invention was measured in Chinese hamster ovary cells (CHO) transfected with the human androgen receptor (hAR), in combination with a mouse mammary tumor virus (MMTV), and luciferase receptor gene (incubation time 16 h, temperature 37° C.) and compared with the activity of 5α-dihydrotestosterone [according to the procedure described by Schoonen, W. G. E. J. et al., Analyt. Biochem. 261, 222-224 (1998)]."}, "[2]": {"target": "T2, human progesterone receptor B (hPRB) (Homo sapiens, UniProt P06401)", "T2 construct": "expressed in transfected cells; host or cells: Chinese hamster ovary cells (CHO)", "T2 sequence (P06401 1-933)": "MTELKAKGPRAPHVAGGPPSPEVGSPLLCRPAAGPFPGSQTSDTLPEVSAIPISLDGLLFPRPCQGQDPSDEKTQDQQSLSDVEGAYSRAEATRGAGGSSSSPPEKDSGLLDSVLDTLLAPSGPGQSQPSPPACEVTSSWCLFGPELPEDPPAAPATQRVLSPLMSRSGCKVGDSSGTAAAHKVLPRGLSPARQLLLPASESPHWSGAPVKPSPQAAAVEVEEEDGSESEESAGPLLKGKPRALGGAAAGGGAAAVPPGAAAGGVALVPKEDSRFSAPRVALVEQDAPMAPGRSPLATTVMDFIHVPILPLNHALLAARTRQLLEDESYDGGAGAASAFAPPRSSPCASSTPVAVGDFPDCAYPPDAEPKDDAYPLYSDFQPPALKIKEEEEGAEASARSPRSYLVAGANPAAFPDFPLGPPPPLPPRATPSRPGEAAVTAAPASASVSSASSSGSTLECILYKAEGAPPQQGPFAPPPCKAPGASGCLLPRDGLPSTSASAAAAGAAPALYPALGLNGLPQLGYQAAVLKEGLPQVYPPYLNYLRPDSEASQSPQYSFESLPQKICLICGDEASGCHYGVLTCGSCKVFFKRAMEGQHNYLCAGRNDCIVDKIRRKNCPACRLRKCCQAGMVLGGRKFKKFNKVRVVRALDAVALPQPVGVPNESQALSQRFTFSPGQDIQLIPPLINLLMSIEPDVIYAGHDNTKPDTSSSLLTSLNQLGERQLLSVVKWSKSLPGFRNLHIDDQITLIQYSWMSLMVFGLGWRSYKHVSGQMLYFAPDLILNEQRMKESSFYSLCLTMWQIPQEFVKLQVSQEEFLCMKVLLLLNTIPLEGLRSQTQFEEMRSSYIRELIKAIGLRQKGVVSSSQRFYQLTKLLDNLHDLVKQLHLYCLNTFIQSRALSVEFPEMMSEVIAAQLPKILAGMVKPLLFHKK", "experiment": "Transactivative progestagenic agonistic activity in CHO cells transfected with hPRB, MMTV and luciferase", "type": "cell-based", "conditions": "MMTV-luciferase, incubation 16 h, 37° C.", "protocol": "as §1, with “transactivative progestagenic” for “transactivative androgen”, “human progesterone” for “human androgen”, “receptor B (hPRB),” for “receptor (hAR),”, “of (16α)-16-ethyl-21-hydroxy-19-norpregn-4-ene-3,20-dione” for “of 5α-dihydrotestosterone”"}, "Oral activity": {"experiment": "Oral activity", "type": "in vivo", "conditions": "found by applicant (\"We have found\")"}, "Liver toxicity": {"experiment": "Liver toxicity", "conditions": "stated without citation"}, "[3]": {"experiment": "Liver safety: BSP retention assay in male castrated rabbits", "type": "in vivo, New Zealand White rabbits", "conditions": "10 mg/kg/day per oral for 7 days, BSP 15 mg/kg intravenous", "protocol": "The primary aim of this test was the evaluation of liver function, by measuring the clearance of a single, intravenously injected, dose of bromosulfophthalein (BSP) after 7 days (once daily) per oral treatment of male castrated rabbits with a compound of the invention.\nBriefly, this test is performed in mature male castrated New Zealand White rabbits. At least two weeks after castration animals are treated for seven days (once daily) with tablets, or arachis oil containing 5% (v/v) ethanol, resulting in a dose of 10 mg/kg/day of a test compound. Twenty-four hours after the last administration the rabbits were light sedated with 0.15 ml Hypnorm intramuscular, BSP was injected (15 mg/kg intravenous, dissolved in 5% (w/v) mannitol/H2O). Blood is collected at 5, 10, 15 and 20 minutes, BSP content in plasma is determined with a spectrophotometer. The t½ of BSP elimination from the blood is calculated from the obtained data."}, "[4]": {"conditions": "from literature; cited from earlier work"}, "[5]": {"conditions": "from literature (Seaman 1985); cited from earlier work"}, "[6]": {"experiment": "Prevention of trabecular bone mineral density (BMD) loss", "type": "in vivo", "conditions": "found by applicant", "description": "Biological activity of compounds according to the invention can be observed in vivo in the rat serum LH suppression test and in the rat anti-steoporosis test measuring restoration of trabecular bone mineral density. Anabolic effect can be observed on musculus levator ani. In the monkey activity can be observed in the testosterone suppression test. In vivo liver safety can be evaluated in the rabbit upon repeated administration of a compound according to the invention."}, "[7]": {"conditions": "vehicle Arachis oil + 5% ethanol"}},
  "note": "Like-named read-outs stand apart in the source and are kept apart here.",
  "data": [
    {"compound": "CCC1CC2=CC(=O)CCC2C2CCC3(C)C(=CCCC3O)C12", "note": "[Compound of Example 2, (7α,17aβ)-7-Ethyl-17a-hydroxy-D-homoestra-4,14-dien-3-one]", "values": [
      {"measurement": "Androgen activity: Relative agonistic activity (%) versus 5α-dihydrotestosterone", "setting": "[1]", "result": 30.5, "unit": "%"},
      {"measurement": "Progestagen activity: Relative agonistic activity (%) versus (16α)-16-ethyl-21-hydroxy-19-norpregn-4-ene-3,20-dione", "setting": "[2]", "result": 0.47, "unit": "%"}
    ]},
    {"compound": "CCC12CCC3C4CCC(=O)C=C4CCC3C1CCCC2O", "note": "[(17aβ)-13-ethyl-17a-hydroxy-D-homogon-4-en-3-one]", "values": [
      {"measurement": "Oral activity", "setting": "Oral activity", "result": "not orally active"}
    ]},
    {"compound": "C[C@@H]1CC2=CC(=O)CC[C@@H]2[C@H]2CC[C@@]3(C)C(=CC[C@]3(C)O)[C@@H]21", "note": "[Reference compound, (7α,17β)-17-Hydroxy-7,17-dimethylestra-4,14-dien-3-one]", "values": [
      {"measurement": "Liver toxicity", "setting": "Liver toxicity", "result": "severe liver toxicity"}
    ]},
    {"compound": "C[C@]12CCC(=O)C=C1CC[C@@H]1[C@@H]2CC[C@@]2(C)[C@H]1CC[C@]2(C)O", "note": "[17α-Methyltestosterone, reference compound]", "values": [
      {"measurement": "T½ BSP", "setting": "[3]; [7]", "result": 5.6, "unit": "min"},
      {"measurement": "T½ BSP", "setting": "[3]; vehicle Tablet", "result": 6.0, "unit": "min"}
    ]},
    {"compound": "C#CC1(O)CCC=C2C3CCC4=CC(=O)CCC4C3CCC21C", "note": "[Compound of Example 9, (17aα)-17a-Hydroxy-D-homo-19-norpregna-4,14-dien-20-yn-3-one]", "values": [
      {"measurement": "Androgen activity: Relative agonistic activity (%) versus 5α-dihydrotestosterone", "setting": "[1]", "result": 12.3, "unit": "%"},
      {"measurement": "Progestagen activity: Relative agonistic activity (%) versus (16α)-16-ethyl-21-hydroxy-19-norpregn-4-ene-3,20-dione", "setting": "[2]", "result": 16.0, "unit": "%"}
    ]},
    {"compound": "C[C@@H]1CC2=CC(=O)CC[C@@H]2[C@H]2CC[C@@]3(C)[C@@H](CC[C@]3(C)O)[C@@H]21", "note": "[7α,17α-dimethylnandrolone]", "values": [
      {"measurement": "Oral activity", "setting": "[4]", "result": "orally active"},
      {"measurement": "Liver toxicity", "setting": "[5]", "result": "severe liver toxicity"}
    ]},
    {"compound": "C[C@]1(O)CCC[C@H]2[C@@H]3CCC4=CC(=O)CC[C@@H]4[C@H]3CC[C@@]21C", "note": "[17aα-Methyl-19-nor-D-homotestosterone]", "values": [
      {"measurement": "Oral activity", "setting": "Oral activity", "result": "low activity upon oral administration"},
      {"measurement": "Prevention of trabecular bone mineral density (BMD) loss", "setting": "[6]", "result": "unable to prevent trabecular bone mineral density (BMD) loss"}
    ]},
    {"compound": "CCC1(O)CCC=C2C3C(C)CC4=CC(=O)CCC4C3CCC21C", "note": "[Compound of Example 6, (7α,17aα)-17a-Hydroxy-7-methyl-D-homo-19-norpregna-4,14-dien-3-one]", "values": [
      {"measurement": "Androgen activity: Relative agonistic activity (%) versus 5α-dihydrotestosterone", "setting": "[1]", "result": 13.2, "unit": "%"},
      {"measurement": "Progestagen activity: Relative agonistic activity (%) versus (16α)-16-ethyl-21-hydroxy-19-norpregn-4-ene-3,20-dione", "setting": "[2]", "result": 91.2, "unit": "%"}
    ]},
    {"compound": "CC1CC2=CC(=O)CCC2C2CCC3(C)C(O)CCCC3C12", "note": "[7α-Methyl-19-nor-D-homotestosterone]", "values": [
      {"measurement": "Oral activity", "setting": "Oral activity", "result": "not an orally active compound"}
    ]},
    {"compound": "CC1CC2=CC(=O)CCC2C2CCC3(C)C(=CCCC3(C)O)C12", "note": "[Compound of Example 4, (7α,17aβ)-17a-Hydroxy-7,17a-dimethyl-D-homoestra-4,14-dien-3-one]", "values": [
      {"measurement": "Androgen activity: Relative agonistic activity (%) versus 5α-dihydrotestosterone", "setting": "[1]", "result": 106.9, "unit": "%"},
      {"measurement": "Progestagen activity: Relative agonistic activity (%) versus (16α)-16-ethyl-21-hydroxy-19-norpregn-4-ene-3,20-dione", "setting": "[2]", "result": 133.7, "unit": "%"},
      {"measurement": "T½ BSP", "setting": "[3]; [7]", "result": 4.9, "unit": "min"},
      {"measurement": "T½ BSP", "setting": "[3]; vehicle Tablet", "result": 5.5, "unit": "min"}
    ]},
    {"compound": "CC1(O)CCC=C2C3CCC4=CC(=O)CCC4C3CCC21C", "note": "[Compound of Example 8, (17aβ)-17a-Hydroxy-17a-methyl-D-homoestra-4,14-dien-3-one]", "values": [
      {"measurement": "Androgen activity: Relative agonistic activity (%) versus 5α-dihydrotestosterone", "setting": "[1]", "result": 157.9, "unit": "%"},
      {"measurement": "Progestagen activity: Relative agonistic activity (%) versus (16α)-16-ethyl-21-hydroxy-19-norpregn-4-ene-3,20-dione", "setting": "[2]", "result": 228.4, "unit": "%"}
    ]},
    {"compound": "CC1CC2=CC(=O)CCC2C2CCC3(C)C(=CCC(C)C3O)C12", "note": "[Compound of Example 3, (7α,17α,17aβ)-17a-Hydroxy-7,17-dimethyl-D-homoestra-4,14-dien-3-one]", "values": [
      {"measurement": "Androgen activity: Relative agonistic activity (%) versus 5α-dihydrotestosterone", "setting": "[1]", "result": 10.2, "unit": "%"},
      {"measurement": "Progestagen activity: Relative agonistic activity (%) versus (16α)-16-ethyl-21-hydroxy-19-norpregn-4-ene-3,20-dione", "setting": "[2]", "result": 47.4, "unit": "%"}
    ]},
    {"compound": "CC1CC2=CC(O)CCC2C2CCC3(C)C(=CCCC3(C)O)C12", "note": "[Compound of Example 5, (3β,7α,17aβ)-7,17a-Dimethyl-D-homoestra-4,14-dien-3,17a-diol]", "values": [
      {"measurement": "Androgen activity: Relative agonistic activity (%) versus 5α-dihydrotestosterone", "setting": "[1]", "result": 36.2, "unit": "%"},
      {"measurement": "Progestagen activity: Relative agonistic activity (%) versus (16α)-16-ethyl-21-hydroxy-19-norpregn-4-ene-3,20-dione", "setting": "[2]", "result": 6.4, "unit": "%"}
    ]},
    {"compound": "CCC12CCC3C4CCC(=O)C=C4CCC3C1CCCC2(C)O", "note": "[(17aβ)-13-ethyl-17a-hydroxy-17a-methyl-D-homogon-4-en-3-one]", "values": [
      {"measurement": "Oral activity", "setting": "Oral activity", "result": "not orally active"}
    ]}
  ]
}
